Molecular target: T1, horseradish peroxidase (HRP) (Armoracia rusticana, UniProt P00433)
T1 construct: gene PRXC1A; free enzyme for this row
T1 sequence (P00433 31-338): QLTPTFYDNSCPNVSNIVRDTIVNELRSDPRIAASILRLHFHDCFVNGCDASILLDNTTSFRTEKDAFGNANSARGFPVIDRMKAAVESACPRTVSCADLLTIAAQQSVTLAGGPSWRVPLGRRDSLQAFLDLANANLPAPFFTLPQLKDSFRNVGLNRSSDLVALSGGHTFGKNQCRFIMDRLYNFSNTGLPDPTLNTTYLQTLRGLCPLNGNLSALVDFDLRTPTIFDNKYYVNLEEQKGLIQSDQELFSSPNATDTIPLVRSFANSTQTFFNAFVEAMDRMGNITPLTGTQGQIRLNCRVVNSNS
Experiment: TMB oxidation, absorbance at […] nm after acid stop
Type: biochemical
Details: free HRP; co-substrate H2O2; oxidation also seen with ZIF-8-encapsulated HRP

## Cc1cc(-c2cc(C)c(N)c(C)c2)cc(C)c1N [TMB, 3,3′,5,5′-Tetramethylbenzidine]
  TMB oxidation, absorbance at 450 nm after acid stop: HRP, HRP@ZIF-8, HRP&Au@ZIF-8 and HRP&Au@ZIF-8/cDNA were all able to catalyze TMB oxidation

Reference: publication PMC10526248, “Zeolitic Imidazolate Framework-8 Composite-Based Enzyme-Linked Aptamer Assay for the Sensitive Detection of Deoxynivalenol” (Biosensors, 2023)
